Assay results reported in publication PMC7265341, “Quantifying CDK inhibitor selectivity in live cells” (Nature Communications, 2020).
Several values for one entry are separate records, joined by “and”; a condition that tells them apart may be missing. Identical values can stand only once. Like-named read-outs stand apart in the source and are kept apart here.

Assays:
CDK12/Cyclin K = CDK12/Cyclin K (Homo sapiens, UniProt Q9NYV4); assay: NanoBRET live-cell target engagement, CDK12-NanoLuc/Cyclin K in HEK-293; type: binding; conditions: 10µM
CDK13/Cyclin K = CDK13/Cyclin K (Homo sapiens, UniProt Q14004); assay: NanoBRET live-cell target engagement, CDK13-NanoLuc/Cyclin K in HEK-293; type: binding; conditions: CDK13/K, 10µM
phospho-Rb (Ser 807/811) = assay: Endogenous phospho-Rb (Ser 807/811) Lumit immunoassay in MCF7 cells; type: cell-based, human; conditions: for Normalized pRB (%): Panel E;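 on all read-outs here: Serum-starved cells exposed to compounds for 24 h with 25 ng/mL hEGF, then lysed, phospho-Rb detected by split-luciferase antibody pair luminescence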
all 21 human CDKs = assay: Live-cell selectivity profile across all 21 CDK/cyclin complexes in HEK-293; type: binding; conditions: live HEK-293; for IC50: remaining CDK family, read-out: Collateral CDK (potency)
[1] = CDK12/K, average of replicates, read-out: Inhibition at 10µM (%) Average
[2] = CDK12/K, read-out: Inhibition at 10µM (%) Replicate 1
[3] = CDK12/K, read-out: Inhibition at 10µM (%) Replicate 2
[4] = average of replicates, read-out: Inhibition at 10µM (%) Average
[5] = read-out: Inhibition at 10µM (%) Replicate 1
[6] = read-out: Inhibition at 10µM (%) Replicate 2
[7] = read-out: Inhibition at 10µM (%) Average, CDK12/K, average of replicates
[8] = read-out: Inhibition at 10µM (%) Replicate 1, CDK12/K
[9] = read-out: Inhibition at 10µM (%) Replicate 2, CDK12/K

Sequence of CDK13/Cyclin K (O75909 whole entry): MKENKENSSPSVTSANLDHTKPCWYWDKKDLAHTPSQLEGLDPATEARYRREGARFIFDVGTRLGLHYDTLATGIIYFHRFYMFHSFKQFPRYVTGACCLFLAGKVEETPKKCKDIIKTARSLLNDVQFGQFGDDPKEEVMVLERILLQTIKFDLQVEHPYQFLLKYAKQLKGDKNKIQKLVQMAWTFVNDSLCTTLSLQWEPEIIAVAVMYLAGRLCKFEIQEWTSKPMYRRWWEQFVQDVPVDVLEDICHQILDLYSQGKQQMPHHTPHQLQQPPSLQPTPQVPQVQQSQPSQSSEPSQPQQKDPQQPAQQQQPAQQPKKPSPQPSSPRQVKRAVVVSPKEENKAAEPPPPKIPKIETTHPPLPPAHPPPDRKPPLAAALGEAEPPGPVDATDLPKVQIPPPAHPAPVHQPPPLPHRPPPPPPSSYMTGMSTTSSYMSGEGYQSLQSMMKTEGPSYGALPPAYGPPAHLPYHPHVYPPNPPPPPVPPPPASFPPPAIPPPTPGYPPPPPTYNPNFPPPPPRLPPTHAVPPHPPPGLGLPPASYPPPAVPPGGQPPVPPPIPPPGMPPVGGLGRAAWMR
Sequence of CDK13/Cyclin K (Q14004 other isoform, or with tags, fused parts or gaps): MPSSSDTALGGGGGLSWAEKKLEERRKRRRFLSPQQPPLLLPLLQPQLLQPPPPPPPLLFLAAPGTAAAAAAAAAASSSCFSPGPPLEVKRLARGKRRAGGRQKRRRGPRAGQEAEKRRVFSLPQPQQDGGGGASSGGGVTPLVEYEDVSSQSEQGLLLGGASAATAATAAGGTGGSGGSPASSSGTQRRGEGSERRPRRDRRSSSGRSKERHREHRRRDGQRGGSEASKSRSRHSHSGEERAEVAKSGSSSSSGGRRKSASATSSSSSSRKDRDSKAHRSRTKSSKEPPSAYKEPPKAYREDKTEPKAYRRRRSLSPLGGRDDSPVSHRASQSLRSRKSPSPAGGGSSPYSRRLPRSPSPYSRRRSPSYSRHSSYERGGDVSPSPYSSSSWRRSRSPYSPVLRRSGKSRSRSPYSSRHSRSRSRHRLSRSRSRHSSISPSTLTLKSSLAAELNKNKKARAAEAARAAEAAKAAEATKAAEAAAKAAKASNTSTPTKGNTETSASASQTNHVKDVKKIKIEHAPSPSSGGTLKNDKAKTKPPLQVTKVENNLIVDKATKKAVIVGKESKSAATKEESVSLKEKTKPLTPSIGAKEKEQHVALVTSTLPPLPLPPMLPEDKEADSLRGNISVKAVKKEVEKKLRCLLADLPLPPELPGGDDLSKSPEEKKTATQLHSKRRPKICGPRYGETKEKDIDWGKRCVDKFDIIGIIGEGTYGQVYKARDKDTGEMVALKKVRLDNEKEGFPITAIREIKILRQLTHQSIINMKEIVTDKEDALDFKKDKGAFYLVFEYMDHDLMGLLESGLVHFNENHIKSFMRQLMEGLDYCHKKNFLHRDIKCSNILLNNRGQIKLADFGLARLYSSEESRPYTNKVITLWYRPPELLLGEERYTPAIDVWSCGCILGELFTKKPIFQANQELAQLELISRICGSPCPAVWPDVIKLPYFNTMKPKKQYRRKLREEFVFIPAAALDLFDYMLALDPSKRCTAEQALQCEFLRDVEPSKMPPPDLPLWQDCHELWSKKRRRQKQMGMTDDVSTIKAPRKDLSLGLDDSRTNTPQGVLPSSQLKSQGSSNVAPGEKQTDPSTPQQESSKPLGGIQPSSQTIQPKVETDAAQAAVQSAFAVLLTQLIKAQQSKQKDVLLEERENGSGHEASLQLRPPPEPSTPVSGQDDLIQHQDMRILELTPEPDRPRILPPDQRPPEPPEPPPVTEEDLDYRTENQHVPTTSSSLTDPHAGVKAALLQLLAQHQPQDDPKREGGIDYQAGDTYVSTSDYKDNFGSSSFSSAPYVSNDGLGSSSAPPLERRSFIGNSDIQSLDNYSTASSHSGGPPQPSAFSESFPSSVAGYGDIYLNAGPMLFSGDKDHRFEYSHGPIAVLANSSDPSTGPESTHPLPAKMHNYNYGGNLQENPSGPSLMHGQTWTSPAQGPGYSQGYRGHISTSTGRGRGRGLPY
Sequence of CDK12/Cyclin K (Q9NYV4 1-1481 isoform Q9NYV4-2): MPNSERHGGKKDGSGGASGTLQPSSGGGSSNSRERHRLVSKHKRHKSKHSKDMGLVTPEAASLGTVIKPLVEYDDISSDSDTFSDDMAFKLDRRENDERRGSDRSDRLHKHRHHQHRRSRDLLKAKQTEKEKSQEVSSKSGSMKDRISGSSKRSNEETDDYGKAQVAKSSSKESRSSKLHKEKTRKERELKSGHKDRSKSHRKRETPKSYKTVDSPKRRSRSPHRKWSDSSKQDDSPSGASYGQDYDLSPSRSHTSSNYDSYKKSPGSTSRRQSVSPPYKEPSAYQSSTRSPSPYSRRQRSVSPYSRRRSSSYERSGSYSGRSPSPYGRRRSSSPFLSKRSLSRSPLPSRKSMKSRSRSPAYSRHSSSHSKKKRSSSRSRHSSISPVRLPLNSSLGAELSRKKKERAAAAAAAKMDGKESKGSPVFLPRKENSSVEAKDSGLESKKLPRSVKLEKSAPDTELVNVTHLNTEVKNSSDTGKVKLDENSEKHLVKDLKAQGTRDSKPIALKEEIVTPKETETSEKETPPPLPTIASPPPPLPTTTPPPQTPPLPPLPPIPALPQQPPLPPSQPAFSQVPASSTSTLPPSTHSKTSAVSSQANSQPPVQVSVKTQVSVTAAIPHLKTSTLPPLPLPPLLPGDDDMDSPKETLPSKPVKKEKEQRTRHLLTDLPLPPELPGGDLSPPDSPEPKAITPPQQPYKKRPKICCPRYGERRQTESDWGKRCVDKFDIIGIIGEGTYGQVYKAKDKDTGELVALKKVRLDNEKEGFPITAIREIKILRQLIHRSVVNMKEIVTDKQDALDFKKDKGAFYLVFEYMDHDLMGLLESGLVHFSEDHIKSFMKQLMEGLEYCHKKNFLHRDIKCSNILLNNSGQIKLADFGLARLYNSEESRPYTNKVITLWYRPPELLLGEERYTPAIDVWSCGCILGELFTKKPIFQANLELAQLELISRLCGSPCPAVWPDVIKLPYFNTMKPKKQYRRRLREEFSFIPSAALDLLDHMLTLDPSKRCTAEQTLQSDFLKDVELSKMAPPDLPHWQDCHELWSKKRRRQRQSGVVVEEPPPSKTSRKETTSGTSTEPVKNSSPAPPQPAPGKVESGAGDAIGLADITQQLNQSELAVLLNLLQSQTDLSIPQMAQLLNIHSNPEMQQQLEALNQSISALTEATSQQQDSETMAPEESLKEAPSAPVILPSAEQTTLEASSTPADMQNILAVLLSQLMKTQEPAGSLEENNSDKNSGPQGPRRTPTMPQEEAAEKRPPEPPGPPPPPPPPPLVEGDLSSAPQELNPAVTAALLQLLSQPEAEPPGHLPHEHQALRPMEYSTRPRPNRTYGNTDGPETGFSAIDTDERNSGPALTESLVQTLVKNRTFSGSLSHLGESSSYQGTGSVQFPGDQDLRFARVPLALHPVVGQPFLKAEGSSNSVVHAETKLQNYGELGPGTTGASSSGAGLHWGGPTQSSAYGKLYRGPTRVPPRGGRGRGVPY
Sequence of CDK12/Cyclin K (O75909 whole entry partner): as the sequence (O75909 whole entry) above

CCN1CCN(Cc2ccc(Nc3ncc(F)c(-c4cc(F)c5nc(C)n(C(C)C)c5c4)n3)nc2)CC1 [Abemaciclib]
inhibition at 10 µM (CDK12/Cyclin K; [1]): 11.6% | inhibition at 10 µM (CDK12/Cyclin K; [2]): 10.3% | inhibition at 10 µM (CDK12/Cyclin K; [3]): 12.8% | inhibition at 10 µM (CDK13/Cyclin K; [4]): 7.8% | inhibition at 10 µM (CDK13/Cyclin K; [5]): 5.2% | inhibition at 10 µM (CDK13/Cyclin K; [6]): 10.4% | IC50 (phospho-Rb (Ser 807/811); Homo sapiens, MCF7 cells, Panel F pIC50 correlations): 45.7 nM | Normalized pRB (%) (phospho-Rb (Ser 807/811); LOG10([Compound]) (LOG10(µM)) 0.0457575): 13.6% and 13.3% | Normalized pRB (%) (phospho-Rb (Ser 807/811); LOG10([Compound]) (LOG10(µM)) 0.522879): 24.5% and 23.6% and 23.2% | Normalized pRB (%) (phospho-Rb (Ser 807/811); LOG10([Compound]) (LOG10(µM)) 1): 20.9% and 22.5% and 21.5% | Normalized pRB (%) (phospho-Rb (Ser 807/811); LOG10([Compound]) (LOG10(µM)) -0.431364): 18% and 19.1% and 18.8% | Normalized pRB (%) (phospho-Rb (Ser 807/811); LOG10([Compound]) (LOG10(µM)) -0.908485): 36.6% and 37.6% and 36.8% | Normalized pRB (%) (phospho-Rb (Ser 807/811); LOG10([Compound]) (LOG10(µM)) -1.38561): 61.8% and 62.2% and 61% | Normalized pRB (%) (phospho-Rb (Ser 807/811); LOG10([Compound]) (LOG10(µM)) -1.86273): 80.7% and 77.6% and 81.4% | Normalized pRB (%) (phospho-Rb (Ser 807/811); LOG10([Compound]) (LOG10(µM)) -2.33985): 90.7% and 95% and 86.6% | Normalized pRB (%) (phospho-Rb (Ser 807/811); LOG10([Compound]) (LOG10(µM)) -2.81697): 91.8% and 94.4% and 95% | Normalized pRB (%) (phospho-Rb (Ser 807/811); LOG10([Compound]) (LOG10(µM)) -3.29409): 93.5% and 103% and 101.1%

COc1cc(F)ccc1-c1ncnc(Nc2cccc(C[S@](C)(=N)=O)c2)n1 [Atuveciclib]
inhibition at 10 µM (CDK12/Cyclin K; [7]): 8.2% | inhibition at 10 µM (CDK12/Cyclin K; [8]): 3% | inhibition at 10 µM (CDK12/Cyclin K; [9]): 13.3% | inhibition at 10 µM (CDK13/Cyclin K; [4]): 4.8% | inhibition at 10 µM (CDK13/Cyclin K; [5]): 8% | inhibition at 10 µM (CDK13/Cyclin K; [6]): 1.6% | IC50 (all 21 human CDKs): > 1000 nM

CCCCOc1c(C(=O)c2c(F)cc(C)cc2F)c[nH]c2nncc1-2 [BMS-265246]
inhibition at 10 µM (CDK12/Cyclin K; [1]): 5.2% | inhibition at 10 µM (CDK12/Cyclin K; [2]): 12.3% | inhibition at 10 µM (CDK12/Cyclin K; [3]): -1.9% | inhibition at 10 µM (CDK13/Cyclin K; [4]): 12.6% | inhibition at 10 µM (CDK13/Cyclin K; [5]): 10.5% | inhibition at 10 µM (CDK13/Cyclin K; [6]): 14.7% | selectivity index for CDK8/19 over CDK1/2 (all 21 human CDKs): > 10 fold

CC(C)c1cnn2c(NCc3ccccc3)cc(NCCCCCCN)nc12 [BS-181]
inhibition at 10 µM (CDK12/Cyclin K; [7]): 25.8% | inhibition at 10 µM (CDK12/Cyclin K; [8]): 20.3% | inhibition at 10 µM (CDK12/Cyclin K; [9]): 31.4% | inhibition at 10 µM (CDK13/Cyclin K; [4]): 23.8% | inhibition at 10 µM (CDK13/Cyclin K; [5]): 28.9% | inhibition at 10 µM (CDK13/Cyclin K; [6]): 18.6% | IC50 (all 21 human CDKs): > 1000 nM
